Assay results from patent publication US20090099169A1, “Benzofuran Compounds As EP1 Receptor Antagonists” (GLAXO GROUP LIMITED, priority 2006, published 2009).
Structures can show the parent of a compound that is named as a salt.

Target: T1, human EP1 receptor (Homo sapiens, UniProt P34995)
T1 sequence (P34995 1-402): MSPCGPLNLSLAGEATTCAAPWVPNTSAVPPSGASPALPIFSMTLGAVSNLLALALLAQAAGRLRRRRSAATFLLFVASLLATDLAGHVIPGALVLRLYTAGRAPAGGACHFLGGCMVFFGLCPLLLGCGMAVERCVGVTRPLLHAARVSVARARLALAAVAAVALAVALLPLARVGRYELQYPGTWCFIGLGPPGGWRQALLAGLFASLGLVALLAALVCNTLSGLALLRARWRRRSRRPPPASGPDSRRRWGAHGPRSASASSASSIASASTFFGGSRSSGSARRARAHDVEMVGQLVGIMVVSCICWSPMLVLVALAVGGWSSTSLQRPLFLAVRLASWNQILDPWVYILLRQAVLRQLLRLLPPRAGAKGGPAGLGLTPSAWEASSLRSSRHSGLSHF
Assay: human EP1 calcium mobilisation assay
Format: cell-based
Design: expressed in transfected cells
Settings: CHO-K1 cells, antagonism of PGE2; averages of a number of experiments; read-out: functional pKi value (human EP1 calcium mobilisation assay) (converted)
Method: Briefly, the antagonist properties of compounds are assessed by their ability to inhibit the mobilisation of intracellular calcium ([Ca^2+]i) in response to activation of EP1 or EP3 receptors by the natural agonist hormone prostaglandin E2 (PGE2). Increasing concentrations of antagonist reduce the amount of calcium that a given concentration of PGE2 can mobilise. The net effect is to displace the PGE2 concentration-effect curve to higher concentrations of PGE2. The amount of calcium produced is assessed using a calcium-sensitive fluorescent dye such as Fluo-4, AM and a suitable instrument such as a Fluorimetric Imaging Plate Reader (FLIPR). Increasing amounts of [Ca^2+]i produced by receptor activation increase the amount of fluorescence produced by the dye and give rise to an increasing signal. The signal may be detected using the FLIPR instrument and the data generated may be analysed with suitable curve-fitting software.
The human EP1 or EP3 calcium mobilisation assay (hereafter referred to as ‘the calcium assay’) utilises Chinese hamster ovary-K1 (CHO-K1) cells into which a stable (PCIN; BioTechniques 20 (1996): 102-110) vector containing either EP1 or EP3 cDNA has previously been transfected. Cells are cultured in suitable flasks containing culture medium such as DMEM:F-12 supplemented with 10% v/v foetal calf serum, 2 mM L-glutamine, 0.25 mg/ml geneticin, 100 μM flurbiprofen and 10 μg/ml puromycin.
For assay, cells are harvested using a proprietary reagent that dislodges cells such as Versene. Cells are re-suspended in a suitable quantity of fresh culture media for introduction into a 384-well plate. Following incubation for 24 hours at 37° C. the culture media is replaced with a medium containing Fluo-4 and the detergent pluronic acid, and a further incubation takes place. Concentrations of compounds are then added to the plate in order to construct concentration-effect curves. This may be performed on the FLIPR in order to assess the agonist properties of the compounds. Concentrations of PGE2 are then added to the plate in order to assess the antagonist properties of the compounds.
The data so generated may be analysed by means of a computerised curve-fitting routine. The concentration of compound that elicits a half-maximal inhibition of the calcium mobilisation induced by PGE2 (pIC50) may then be estimated.

SMILES	Ki [nM]
CC(C)c1cc2cc(Cl)cc(Cc3cccc(C(N)=O)n3)c2o1 [Example 40, 6-{[5-Chloro-2-(1-methylethyl)-1-benzofuran-7-yl]methyl}-2-pyridinecarboxamide]	≤ 316
Cc1cc(C(N)=O)nn1Cc1cc(C#N)cc2cc(C(C)C)oc12 [Example 41, 1-{[5-Cyano-2-(1-methylethyl)-1-benzofuran-7-yl]methyl}-5-methyl-1H-pyrazole-3-carboxamide]	≤ 316
CC(C)c1cc2cc(Cl)cc(Cc3ccc(C(=O)NN4CCOCC4)o3)c2o1 [Example 42, 5-{[5-Chloro-2-(1-methylethyl)-1-benzofuran-7-yl]methyl}-N-4-morpholinyl-2-furancarboxamide]	≤ 316
Cc1cc(C(=O)NCC2CCOCC2)nn1Cc1cc(Cl)cc2cc(C(C)C)oc12 [Example 61, 1-{[5-Chloro-2-(1-methylethyl)-1-benzofuran-7-yl]methyl}-5-methyl-N-(tetrahydro-2H-pyran-4-ylmethyl)-1H-pyrazole-3-carboxamide]	≤ 316
CC(C)c1cc2cc(Cl)cc(Cc3ccc(-c4nc5cc(CN6CCN(C)CC6)ccc5[nH]4)o3)c2o1 [Example 13, 2-(5-{[5-Chloro-2-(1-methylethyl)-1-benzofuran-7-yl]methyl}-2-furanyl)-5-[(4-methyl-1-piperazinyl)methyl]-1H-benzimidazole Hydrochloride]	≤ 316
CC(C)c1cc2cc(Cl)cc(Cc3ccc(-c4nc5cc(CN6CCCC6)ccc5[nH]4)o3)c2o1 [Example 12, 2-(5-{[5-Chloro-2-(1-methylethyl)-1-benzofuran-7-yl]methyl}-2-furanyl)-5-(1-pyrrolidinylmethyl)-1H-benzimidazole Hydrochloride]	≤ 316
CC(C)c1cc2cc(Cl)cc(Cc3ccc(-c4nc5cc(CN(C)C)ccc5[nH]4)o3)c2o1 [Example 11, 1-[2-(5-{[5-Chloro-2-(1-methylethyl)-1-benzofuran-7-yl]methyl}-2-furanyl)-1H-benzimidazol-5-yl]-N,N-dimethylmethanamine Hydrochloride]	≤ 316
Cc1cc(C(=O)NN2CCOCC2)nn1Cc1cc(C#N)cc2cc(C(C)C)oc12 [Example 45, 1-{[5-Cyano-2-(1-methylethyl)-1-benzofuran-7-yl]methyl}-5-methyl-N-4-morpholinyl-1H-pyrazole-3-carboxamide]	≤ 316
Cc1cc(C(=O)NN2CCOCC2)nn1Cc1cc(Cl)cc2cc(C3CC3)oc12 [Example 31, 1-[(5-Chloro-2-cyclopropyl-1-benzofuran-7-yl)methyl]-5-methyl-N-4-morpholinyl-1H-pyrazole-3-carboxamide]	≤ 316
Cc1cc(NC(=O)C2CCOCC2)nn1Cc1cc(C#N)cc2cc(C(C)C)oc12 [Example 70, N-(1-{[5-Cyano-2-(1-methylethyl)-1-benzofuran-7-yl]methyl}-5-methyl-1H-pyrazol-3-yl)tetrahydro-2H-pyran-4-carboxamide]	≤ 316
CC(C)c1cc2cc(Cl)cc(Cc3ccc(C(=O)NCCN(C)C)o3)c2o1 [Example 58, 5-{[5-Chloro-2-(1-methylethyl)-1-benzofuran-7-yl]methyl}-N-[2-(dimethylamino)ethyl]-2-furancarboxamidehydrochloride]	1000 to 1580
Cc1cc(C(=O)NC2CCNCC2)nn1Cc1cc(Cl)cc2cc(C(C)C)oc12 [Example 33, 1-{[5-chloro-2-(1-methylethyl)-1-benzofuran-7-yl]methyl}-5-methyl-N-4-piperidinyl-1H-pyrazole-3-carboxamide Hydrochloride]	1000 to 1580
Cc1cc(NC(=O)[C@H]2CCCO2)nn1Cc1cc(C#N)cc2cc(C(C)C)oc12 [Example 69, (2R)—N-(1-{[5-Cyano-2-(1-methylethyl)-1-benzofuran-7-yl]methyl}-5-methyl-1H-pyrazol-3-yl)tetrahydro-2-furancarboxamide]	≤ 316
